Laboratory results: article PMC4791274, “Cerdulatinib, a novel dual SYK/JAK kinase inhibitor, has broad anti-tumor activity in both ABC and GCB types of diffuse large B cell lymphoma” (Oncotarget, 2015)

Assays:
ZAP70 = conditions: cited from earlier work
JAK1 = conditions: biochemical assay; cited from earlier work
MST1 = conditions: biochemical assay; cited from earlier work
RSK2 = conditions: biochemical assay; cited from earlier work
ITK = conditions: biochemical assay; cited from earlier work
[1] = tested on: BCR-stimulated DLBCL cells; assay: BrdU S-phase analysis under BCR stimulation; type: cell-based; conditions: 3 μM, 48 h, anti-IgM and anti-IgG stimulation
Procedure: (§1) DLBCL cells were treated with various concentrations of cerdulatinib for 48 h. Cells were incubated with 10 μM BrdU (BD Biosciences, San Jose, CA) at 37°C for 2 h, and stained with PE conjugated anti-BrdU antibody (BD Biosciences) according to the supplier's manual. The percentage of cell cycle distribution was analyzed with FlowJo (Tree Star Inc. Ashland, OR).

TSSK = conditions: biochemical assay; cited from earlier work
SYK = conditions: biochemical assay; cited from earlier work
[2] = tested on: splenomegaly induced by chronic BCR stimulation; conditions: mice; cited from earlier work
TBK1 = conditions: biochemical assay; cited from earlier work
PAR1B-α = conditions: biochemical assay; cited from earlier work
24 kinases = conditions: biochemical assays, Table 1; read-out: IC50's against 24 kinases; cited from earlier work
ABC DLBCL cell lines = assay: MTT assay, ABC cell lines; type: cell-based; conditions: ABC cell lines with relatively higher total and phosphorylated STAT3, 72 h
Procedure: (§2) DLBCL cell lines were treated with various concentrations of cerdulatinib for up to 72 h. The metabolic activities of cells were determined with MTT assay according to manufacturer's instruction (Roche Applied Science, Indianapolis, IN) at 72 h time point. IC50 was calculated using the Sigma Plot generated with GraphPad Prism 6 software (GraphPad, La Jolla, CA). Cell growth was measured at every 24 h counting live cells with flow cytometry as previously described. Cells were collected every 24 h and cell viability was determined by the PE Annexin V Apoptosis Detection Kit I (BD Biosciences).

JAK2 = conditions: cited from earlier work
JNK3 = conditions: biochemical assay; cited from earlier work
FMS = conditions: biochemical assay; cited from earlier work
JAK3 = conditions: biochemical assay; cited from earlier work
HBL1 cells = assay: cell cycle analysis, BrdU incorporation; type: cell-based; conditions: HBL1, 48 h
Procedure: as §1

LY18 cells = assay: cell cycle analysis, BrdU incorporation; type: cell-based; conditions: LY18, 48 h
Procedure: as §1

LY3 cells = assay: cell cycle analysis, BrdU incorporation; type: cell-based; conditions: LY3, 48 h
Procedure: as §1

DHL2 cells = assay: cell cycle analysis, BrdU incorporation; type: cell-based; conditions: DHL2, 48 h
Procedure: as §1

DHL6 cells = assay: cell cycle analysis, BrdU incorporation; type: cell-based; conditions: DHL6, 48 h
Procedure: as §1

[3] = tested on: BCR-stimulated DLBCL cells; assay: annexin V / 7-AAD viability under BCR stimulation; type: cell-based; conditions: 3 μM, 48 h, anti-IgM and anti-IgG stimulation, all cell lines tested
Procedure: as §2

[4] = tested on: LY18 (OCI-LY18) GCB DLBCL cell line; assay: MTT assay (cellular metabolic activity), 72 h; type: cell-based; conditions: Homo sapiens, OCI-Ly18, 72 h
Procedure: as §2

[5] = tested on: U2932 ABC DLBCL cell line; assay: MTT assay (cellular metabolic activity), 72 h; type: cell-based; conditions: Homo sapiens, U2932, 72 h
Procedure: as §2

DLBCL cell lines = assay: annexin V / 7-AAD cell viability by flow cytometry; type: cell-based; conditions: all tested cell lines with the exception of LY18; up to 72 h; concentration- and time-dependent
Procedure: as §2

p-STAT3, p-AKT and p-ERK = assay: phospho-flow assay in anti-BCR stimulated primary DLBCL cells; type: cell-based, human; conditions: 0.5 μM or 1 μM, 6 h, then IgM/IgG 15 min, six primary DLBCL samples
Procedure: GCB cell lines OCI-LY1, OCI-LY4, OCI-LY8, OCI-LY18, SUDHL6 and VAL were cultured in Iscove's Modified Dulbecco's Medium (IMDM) supplemented with 20% Fetal Bovine Serum (FBS) and 100 μg/mL penicillin/streptomycin. ABC cell lines SUDHL2 and HBL1 were cultured in RPMI1640 supplemented with 20% FBS and 100 μg/mL penicillin/streptomycin. OCI-LY3 cells were grown in RPMI1640 supplemented with 20% FBS, 100 μg/ml penicillin/streptomycin and HEPES. ABC cell lines OCI-LY10 was cultured in Iscove's Modified Dulbecco's Medium (IMDM) supplemented with 20% human serum and 100 μg/mL penicillin/streptomycin. ABC cell line U2932 was cultured in high glucose RPMI1640 supplemented with 20% FBS, 100 μg/ml penicillin/streptomycin. All cells were maintained in a humidified 37°C/5% CO2 incubator. Frozen primary DLBCL cells were obtained from the tumor bank of the Department of Pathology at Weill Cornell Medical College after Institutional Review Board review and approval. All primary cells were thawed as previously described and cultured in above conditions at 37°C for 6 h in the presence or absence of cerdulatinib followed by BCR stimulations with 5 μg/mL of IgM and IgG. The clinical characteristics of these patients are listed in the Supplemental Table 1. Cerdulatinib was kindly provided by Portola Pharmaceuticals Inc. (South San Francisco, CA) and stored as 10 mM stock at −20°C. […]

RSK4 = conditions: biochemical assay; cited from earlier work
LCK = conditions: cited from earlier work

For `CCS(=O)(=O)N1CCN(c2ccc(Nc3ncc(C(N)=O)c(NC4CC4)n3)cc2)CC1` [cerdulatinib], the “cellular activity against ZAP70” value (ZAP70) is given as “lacking cellular activity”, the IC50 (JAK1) is given as 12 nM and the IC50 (MST1) is given as 4 nM. The IC50 (RSK2) was 20 nM, the IC50 (ITK) was 194 nM and the “S-phase of BCR-stimulated tumor cells” value [1] was “sensitive”. For the same compound, the IC50 (TSSK) was 14 nM, the IC50 (SYK) was 32 nM and the splenomegaly [2] was “alleviates splenomegaly”. For the same compound, the IC50 (TBK1) was 10 nM, the IC50 (PAR1B-α) was 13 nM and the IC50 (24 kinases) was < 200 nM. For the same compound, the IC50 (ABC DLBCL cell lines) was 290 to 1800 nM, the “cellular activity against JAK2” value (JAK2) was “lacking cellular activity” and the IC50 (JNK3) was 18 nM. The IC50 (FMS) was 5 nM, the IC50 (JAK3) was 8 nM and the S phase fraction (HBL1 cells) was “significant dose-dependent reduction”. For the same compound, the S phase fraction (LY18 cells) was “significant dose-dependent reduction”, the “effect on S phase fraction” value (LY3 cells) was “modest” and the “effect on S phase fraction” value (DHL2 cells) was “modest”. For the same compound, the S phase fraction (DHL6 cells) was “significant dose-dependent reduction”, the “viability of stimulated DLBCL cells” value [3] was “reduced” and the IC50 [4] was 160 nM. The IC50 [5] was 1800 nM, the “cell viability (annexin V-/7-AAD-)” value (DLBCL cell lines) was “reduced” and the “p-STAT3, p-AKT and p-ERK levels” value (p-STAT3, p-AKT and p-ERK) was “marked and simultaneous down-regulation”. The IC50 (RSK4) was 28 nM and the “cellular activity against LCK” value (LCK) was “lacking cellular activity”.
